# Key:
# [1] = test system: sandwich-cultured human hepatocytes; assay: Cholestatic drug-induced liver injury (c-DILI) assay; assay type: cell-based; details: 30 µM, 24 h, in the presence or absence of a toxic concentration of bile acids
# Description: This study was conducted at BioIVT (Durham, […]). Sandwich-cultured human hepatocytes (SCHH) were prepared on BioCoat 96-well Cell Culture Plate from Corning (Cat # 354407) using Transporter Certified™ cryopreserved hepatocytes from BioIVT (Cat # M00995-TCERT) and maintained in freshly prepared QualGro™ Hepatocyte Culture Medium. […] Following 24 h of exposure, the culture plates were harvested for adenosine triphosphate (ATP) and lactate dehydrogenase (LDH) analysis. Cellular ATP content was determined using the CellTiter-Glo® Assay Kit and LDH leakage into the culture media was determined using the CytoTox-ONE® Assay Kit, both obtained from Promega, per manufacturer’s instructions.
# [2] = test system: human precision cut lung slices from donors with pulmonary fibrosis; assay: Fibrotic marker mRNA (qPCR) in cryopreserved PCLS from donors with pulmonary fibrosis; assay type: cell-based; details: PIPE-791, 6 days, 6 donors
# [3] = test system: fresh human PCLS from donors with pulmonary fibrosis; assay: Secreted biomarkers in fresh PCLS from pulmonary fibrosis donors; assay type: cell-based; details: PIPE-791 0.03, 0.3, 3 µM; 48 h
# Text: Translationally, biomarker-based strategies for assessing aberrant extracellular matrix deposition and remodeling in the context of disease pathogenesis and compound efficacy have become increasingly relevant. For the PCLS gene expression studies, slices were preserved through slow cryogenic freezing of tissue. While this affords experimental flexibility, some physiological relevance is lost over the course of cryostorage and recovery (e.g., immune cell loss). To circumvent this, fresh PCLS from two donors with pulmonary fibrosis were generated and immediately placed into culture. For this experiment, well-established, secreted fibrotic markers that encompass fibrogenesis and tissue remodeling were measured: C3M (a marker of collagen III degradation and an indicant of ECM remodeling and tissue turnover), Pro-C3 (a neo-epitope fragment of collagen III and a marker of active fibrogenesis and fibrosis progression), and Pro-C6 (a neoepitope fragment of COLVIA3 and a marker of remodeling and wound healing). […] Media was then removed and analyzed for biomarker concentration.
# PCLS cultures for secreted biomarker analysis were performed at Fraunhofer ITEM (Hanover, Germany) using tissue from pathologist qualified, pulmonary fibrosis patients. Tissue from individual donors and 2 lung regions were collected in accordance with policies approved by the Hanover Medical School ethics committee. Only fibrotic tissue was used for experiments. Region 1 consisted of subpleural tissue and Region 2 of central tissue. For each, lung lobes were filled with low-melting agarose then sectioned at 300 μm on a Krumdiek tissue slicer as described in Hesse et al., 2022. Slices were incubated in DMEM containing penicillin and streptomycin, two slices per region were used. […] Supernatant was collected and shipped to Nordic Bioscience (Herlev, Denmark) for C3M, Pro-C6 and Pro-C3 analysis. Donor information can be found in Additional File 1.
# [4] = Plasma protein binding (fraction unbound); assay type: in vitro ADME; details: rat plasma
# [5] = test system: primary human lung fibroblasts; assay: LPA-induced chemotaxis assay; assay type: cell-based; details: 1 µM LPA chemoattractant; 6 h preincubation; read-out: IC50 inhibition of fibroblast chemotaxis
# Description: Chemotaxis assay: Primary human lung fibroblasts were obtained from ATCC (Cat # PCS-201-020) and cultured in fibroblast media as per ATCC directions. Fibroblasts were serum starved overnight in basal fibroblast media. Cells were then lifted using CellStripper, centrifuged at 500 x g for 10 min, then resuspended in basal media. […] The receiving chamber contained 1 µM LPA. Chemotaxis was quantified as per Cell Biolabs, Inc instructions on a Flexstation 3 (Molecular Devices).
# [6] = test system: bleomycin-induced lung fibrosis; assay: Systemic (subcutaneous) bleomycin mouse model; assay type: in vivo; details: 3 mg/kg oral once a day, therapeutic
# Description: Mice were injected subcutaneously with bleomycin (0.1 units/day), on a schedule of 5 days on/2 days off to induce fibrosis. […] Dosing was maintained until study end, at which point lung tissues were collected. The right lobe was snap frozen and processed for collagen analysis for hydroxyproline; the left lobe was sectioned and stained with Masson’s trichrome stain for histological assessment of tissue collagen. This study was conducted by Inotiv (West Lafayette, IN). Forty-four female 9 week old C57Bl/6 mice (Jackson Labs) were provided standard chow (Envigo, Cat #: 8940), housed under standard conditions, and allowed to acclimate for > 3 days prior to enrollment. Prior to start, mice were weighed and placed into balanced enrollment groups. Four days prior to start, mice were anesthetized, dorsal fur shaved and removed with depilatory agent, and two circles (~ 1.5 cm diameter) heat-branded on their dorsal abdomen. Fur was removed as needed for the balance of the study to ensure consistent location of s.c. injections. Beginning on day 0 and through day 26, mice were anesthetized with isoflurane and administered 0.9% NaCl or bleomycin injections (100 µl/injection, s.c.) into each of the circles (2 injections/mouse/d) on a 5 day on/2 day off paradigm. Mice were administered 0.9% NaCl (vehicle) or bleomycin (0.1 U) with bleomycin doses split evenly between the two circles (i.e., 0.05 U/circle). […] Weight measures and health observations were made daily. On day 27, mice were dosed to enable trough blood/plasma collection on day 28, which was collected via retro-orbital approach under isoflurane anesthesia. Following blood collection, mice were administered vehicle or compound on a timetable as appropriate to enable a peak blood collection 2 h postdose. At the time of sacrifice, mice were anesthetized with pentobarbital, a tracheotomy performed and interfaced with a positive pressure ventilator providing 100% O2. The mouse’s chest was then opened, and a needle interfaced with an infusion pump introduced to the right ventricle. […] The lungs were then harvested, immediately immersed in ice-cold 0.9% NaCl, gross dissected and subjected to morphological analyses. Tissue samples will be processed for biochemical and/or histological analyses as described below. Masson’s Trichrome Blue stained slides were subjected to histological analyses using color segmentation analysis for lung fibrosis. Frozen lung samples underwent hydroxyproline analysis as described below. Lung tissue processing – following exsanguination and flushing of the pulmonary circulation to clear blood, the lungs were removed, placed in ice-cold 0.9% NaCl and processed on wet ice. Extraneous tissue was removed and whole lung weight recorded. […]
# [7] = Rat plasma pharmacokinetics after oral dose; assay type: in vivo; details: 10 mg/kg oral, n=2
# Description: This distinct, long-lived pharmacokinetic profile would support a dosing frequency less than that of other LPAR1 antagonists described in the literature.
# Plasma and lung homogenate samples were thawed and further diluted as necessary with naïve mouse plasma or naïve lung homogenate matrix. […] Plasma drug concentrations were calculated by comparison of peak area ratios of analyte/IS to the prepared calibration standards using Sciex Analyst software.
compound,measurement,setting,value
COc1ccc(NC(=O)N(c2ccccc2C(C)C)C2CCC(C(=O)O)CC2)c(OC(F)F)n1 (centres unmarked) [PIPE-791],ATP content (cell viability),[1],nor a decrease in ATP content
same,lactate dehydrogenase leakage (cell death),[1],neither an appreciable increase in lactate dehydrogenase
same,slice health as measured by LDH in the media,[2],no significant effect on slice health
same,secreted C3M,[3],"reduction in C3M secretion with PIPE-791 at all concentrations tested, with significance observed at 0.03 and 3 µM"
same,secreted Pro-C3,[3],did not observe a significant decrease
same,secreted Pro-C6,[3],significant reduction in secreted Pro-C6 at all concentrations
same,plasma fraction unbound,[4],0.057
same,IC50,[5],1.5 nM
same,reduction in lung hydroxyproline compared to bleomycin/vehicle,[6],40%
same,"tissue collagen fraction (TCF), trichrome",[6]; p = 0.0017,nearly full reduction
same,plasma unbound concentration at 24 h post-dose versus calcium mobilization IC50,[7],exceeded the in vitro calcium mobilization IC50

# — article PMC12400753 (Respiratory Research, 2025)
